Experimental data as given in patent US11647737B2, “Genetically modified rabbit expressing an exogenous protein in milk” (APPLIED STEMCELL, INC., priority 2016, dated 2023).
Where two headings read alike, the source gives them in different places.

Experiments:
[1] = test system: ROSA26 like locus (RLL) in rabbit embryos; conditions: for knock-in rate: 20 h, control 4.8%
Protocol: We first tested the effects of SCR7 and RS-1 on Cas9 mediated HDR at a ROSA26 like locus (RLL) in the rabbit genome (FIG. 6). Donor template DNAs were co-microinjected with Cas9 mRNA and sgRNA for RLL locus. After injection, the embryos were treated for 20 h in a serial concentration of SCR7: 0 μM (control), 20 μM, 40 μM, and 80 μM, or in RS-1 at 0 μM (control), 7.5 μM, and 15 μM.

[2] = test system: beta-casein locus in rabbit embryos; experiment: td-Tomato knock-in efficiency at the beta-casein locus in rabbit embryos; format: cell-based; conditions: RS-1 7.5 μM; control 8.3%; P<0.05
Protocol: A mixture containing 100 ng/μl donor DNA, 100 ng/μl Cas9 mRNA and 6 ng/μl sgRNA were used for cytoplasm microinjection. Embryos were subsequently cultured to blastocyst stages, genomic DNA extracted, and subjected to PCR using primer sets described in FIG. 4. Embryos that are positive containing the desired band size for both primer sets LF1/LR1 and RF1/RR1 are considered putative knock-in.

β-casein (rbCSN2) = experiment: In vitro validation of sgRNAs in microinjected rabbit embryos (PCR and sequencing of blastocysts), β-casein; format: cell-based; conditions: 100 ng/μl Cas9 mRNA and 6 ng/μl sgRNA
Protocol: All animal maintenance, care and use procedures were reviewed and approved by the University Committee on the Use and Care of Animals (UCUCA) of the University of Michigan. Embryos were harvested from superovulated embryo donor female rabbits as previously described. Microinjection was performed on embryos 19-21 h post insemination using a micromanipulator under the inverted microscope equipped with a differential interference contrast (DIC) device. A mixture containing 100 ng/μl Cas9 mRNA and 6 ng/μl sgRNA were used for cytoplasmic microinjection. The injected embryos were washed and cultured in vitro for 3-4 days until they reached blastocyst stage.
Blastocyst stage embryos were lysed individually and genomic DNA extracted. To get better PCR reaction, the whole genome was replicated using a REPLI-g® Mini Kit (Qiagen, Germantown, Md.) following the manufacturer's protocol with slight modification. PCR products using primer set LF1/RR1 were purified and sequenced for detection of indel mutations proximate to the sgRNA target sequence (FIG. 4). On the chromatographic curves, peaks on peaks approximate the targeting site indicate an indel event. Mutation Surveyor (Softgenetics, State College, Pa.) was used to analyze sequencing results.
In total, we performed microinjection to 102 pronuclear stage embryos with sgRNA#3 targeting β-casein (rbCSN2) (see Table 1). […]

Compound: O=c1[nH]c(=S)[nH]c(N=Cc2ccccc2)c1N=Cc1ccccc1 [SCR7]
- overall knock-in efficiency ([1]; embryos treated 20 h with SCR7 20 μM, 40 μM, 80 μM, control 7.1%): 7.7-9.4%
- effect on overall knock-in efficiency ([1]; embryos treated 20 h with SCR7 20-80 μM vs control): no significant effects

Compound: O=C(Nc1ccc(Br)cc1)c1ccc(Br)c(S(=O)(=O)NCc2ccccc2)c1 [RS-1]
- % KI (knock-in rate) [2]: 28.9%
- knock-in rate ([1]; RS-1 7.5 μM): 26.1%
- knock-in rate ([1]; RS-1 15 μM): 5.4%

Compound: sgRNA#3: sgRNA targeting rabbit β-Casein intron 1, GGATATCATGTTAGAGTGCCTGG (SEQ ID NO: 1) (listed as DNA, chemistry not given here; the letters are possibly those of the target site)
- Bi-allelic mutations (%) (β-casein (rbCSN2)): 36%
- blastocysts with insertions or deletions at or proximate the targeted cleavage site (#mutated, %) (β-casein (rbCSN2); 56 blastocysts sequenced): 63%
